Test results taken from US8129530B2, “Catecholamine derivatives and prodrugs thereof” (H. Lundbeck A/S, priority 2007, dated 2012).

Experiments:
[1] = test system: PD patients; conditions: intravenous (IV); cited from earlier work
[2] = test system: mouse model of severe dopamine depletion; assay: Superiority model; format: in vivo; conditions: mice
Excerpt: Both Apomorphine and L-DOPA stimulate D1 and D2-like dopamine receptors.

| Structure (SMILES) | antiparkinson efficacy [1] | reversal of motility deficits / restoration of locomotion [2] |
| --- | --- | --- |
| CCCc1cc2c(s1)CN[C@@H]1CCc3cc(OC(C)=O)c(OC(C)=O)cc3[C@@H]21 [Adrogolide] | comparable to that of L-DOPA |  |
| CN1CCc2cccc3c2[C@H]1Cc1ccc(O)c(O)c1-3 [Apomorphine] |  | able to reverse motility deficits |
| N[C@@H](Cc1ccc(O)c(O)c1)C(=O)O [L-DOPA, (levo)-3,4-dihydroxy phenylalanine] |  | able to reverse motility deficits |
